B1: ATP7B^W1452A/L1455A: full-length ATP7B variant W1452A/L1455A with mutated LIR3 motif (protein)
chain: MPEQERQITAREGASRKILSKLSLPTRAWEPAMKKSFAFDNVGYEGGLDGLGPSSQVATSTVRILGMTCQSCVKSIEDRISNLKGIISMKVSLEQGSATVKYVPSVVCLQQVCHQIGDMGFEASIAEGKAASWPSRSLPAQEAVVKLRVEGMTCQSCVSSIEGKVRKLQGVVRVKVSLSNQEAVITYQPYLIQPEDLRDHVNDMGFEAAIKSKVAPLSLGPIDIERLQSTNPKRPLSSANQNFNNSETLGHQGSHVVTLQLRIDGMHCKSCVLNIEENIGQLLGVQSIQVSLENKTAQVKYDPSCTSPVALQRAIEALPPGNFKVSLPDGAEGSGTDHRSSSSHSPGSPPRNQVQGTCSTTLIAIAGMTCASCVHSIEGMISQLEGVQQISVSLAEGTATVLYNPSVISPEELRAAIEDMGFEASVVSESCSTNPLGNHSAGNSMVQTTDGTPTSVQEVAPHTGRLPANHAPDILAKSPQSTRAVAPQKCFLQIKGMTCASCVSNIERNLQKEAGVLSVLVALMAGKAEIKYDPEVIQPLEIAQFIQDLGFEAAVMEDYAGSDGNIELTITGMTCASCVHNIESKLTRTNGITYASVALATSKALVKFDPEIIGPRDIIKIIEEIGFHASLAQRNPNAHHLDHKMEIKQWKKSFLCSLVFGIPVMALMIYMLIPSNEPHQSMVLDHNIIPGLSILNLIFFILCTFVQLLGGWYFYVQAYKSLRHRSANMDVLIVLATSIAYVYSLVILVVAVAEKAERSPVTFFDTPPMLFVFIALGRWLEHLAKSKTSEALAKLMSLQATEATVVTLGEDNLIIREEQVPMELVQRGDIVKVVPGGKFPVDGKVLEGNTMADESLITGEAMPVTKKPGSTVIAGSINAHGSVLIKATHVGNDTTLAQIVKLVEEAQMSKAPIQQLADRFSGYFVPFIIIMSTLTLVVWIVIGFIDFGVVQRYFPNPNKHISQTEVIIRFAFQTSITVLCIACPCSLGLATPTAVMVGTGVAAQNGILIKGGKPLEMAHKIKTVMFDKTGTITHGVPRVMRVLLLGDVATLPLRKVLAVVGTAEASSEHPLGVAVTKYCKEELGTETLGYCTDFQAVPGCGIGCKVSNVEGILAHSERPLSAPASHLNEAGSLPAEKDAVPQTFSVLIGNREWLRRNGLTISSDVSDAMTDHEMKGQTAILVAIDGVLCGMIAIADAVKQEAALAVHTLQSMGVDVVLITGDNRKTARAIATQVGINKVFAEVLPSHKVAKVQELQNKGKKVAMVGDGVNDSPALAQADMGVAIGTGTDVAIEAADVVLIRNDLLDVVASIHLSKRTVRRIRINLVLALIYNLVGIPIAAGVFMPIGIVLQPWMGSAAMAASSVSVVLSSLQLKCYKKPDLERYEAQAHGHMKPLTASQVSVHIGMDDRWRDSPRATPWDQVSYVSQVSLSSLTSDKPSRHSAAADDDGDKASLALNGRDEEQYI

Columns and labels:
[1] = test system: HepG2 WT cells; test: Autophagy detection by western blot (LC3B-II/LC3B-I), HepG2 WT; format: cell-based, human; details: 24 h treatment, 100–800 µM, effect at 600 µM and 800 µM
Protocol: (§1) 5 × 10^5 HepG2 cells were cultured in 2 mL of DMEM medium supplemented with 10% FBS and 1% P/S. Once the cell reached 80% confluence, they were treated with varied concentration of CuSO4 (Sigma Aldrich, 209198) from 200 µM to 800 µM for 24 h. For the starvation induction, cells were additionally treated with Earle’s Balanced Salt Solution (EBSS) media (Sigma Aldrich, E3024) for 2 h with or without 50 µM chloroquine (CLQ) prior to lysis with RIPA buffer containing inhibitor cocktails (Roche Life Science, 11697498001). Protein concentration was determined to be sure that the protein of each sample was equally loaded on the Criterion TGX precast gel for western blot detection. ATP7B, GAPDH and LC3B-II/LC3B-I was determined using the above-mentioned antibodies. Western Blot analysis was carried out as described above.

[2] = test system: HepG2 WT cells; test: Colocalization of EGFP-ATP7B-WT with TGN, lysosome (LAMP1) and LC3B markers; format: cell-based, human
Protocol: (§2) For the detection of the effect of copper on autophagosome-lysosome fusion, 50,000 cells of each HepG2 WT and HepG2 ATP7B^−/− were grown on laminin-coated coverslips for 24 h, transduced with BacMam-GFP-RFP-LC3B overnight according to the manufacturer’s recommendations. The cells were then treated with CuSO4 at a concentration range from 100 µM to 800 µM for 24 h, fixed with 4% paraformaldehyde for 15 min and finally stained with 250 ng/mL DAPI (Thermo Fisher scientific, Molecular Probes, D1306) for 5 min. The coverslips were fixed on a glass slide using Mowiol 4–88 (Sigma Aldrich, 81381). The fluorescence cell imaging was acquired using a confocal Zeiss LSM 780 microscope with a 63 × 1.40 Oil DIC M27. […] Red and yellow puncta count per cell was done using the particle analysis in image J. For protein ATP7B trafficking analysis, 50,000 cells of HepG2 WT and HepG2 ATP7B^−/− were cultured in a 500 µL cell culture medium on a laminin-coated coverslip for 24 h, then transfected with EGFP-ATP7B. After 6 h post transfection, cells were transduced with BacMam-RFP-Golgi or the BacMam-RFP-Lysosome overnight, then treated with various concentrations of CuSO4 or 200 µM of bathocuproine disulfonate (BCS) for 24 h or EBSS for 2 h, respectively. To detect LC3B or endogenous ATP7B, the fixed cells were incubated with anti-LC3B or anti-ATP7B antibodies at 4 °C overnight followed by secondary antibody incubation, Alexa Fluor 568 goat anti-rabbit, at temperature for 1 h in the dark. Pearson’s correlation coefficient was analyzed per cell using the colocalization threshold of ImageJ Fiji.

[3] = test system: HepG2 WT cells; test: Autophagosome-lysosome fusion, tandem sensor RFP-GFP-LC3B, HepG2 WT; format: cell-based, human; details: 24 h, high CuSO4 concentration, significance reached at 800 µM, 30–50 cells per condition
Protocol: as §2, with “To detect LC3B or endogenous ATP7B, the fixed cells were incubated with anti-LC3B or anti-ATP7B antibodies at 4 °C overnight followed by secondary antibody incubation, Alexa Fluor 568 goat anti-rabbit, at temperature for 1 h in the dark.” left out

[4] = test system: HepG2 ATP7B^−/− cells; test: Autophagosome-lysosome fusion, tandem sensor RFP-GFP-LC3B, HepG2 ATP7B-/-; format: cell-based, human; details: 24 h, 800 µM, 30–50 cells per condition
Protocol: as §2, with “To detect LC3B or endogenous ATP7B, the fixed cells were incubated with anti-LC3B or anti-ATP7B antibodies at 4 °C overnight followed by secondary antibody incubation, Alexa Fluor 568 goat anti-rabbit, at temperature for 1 h in the dark.” left out

[5] = test system: HepG2 ATP7B^−/− cells; test: Autophagy detection by western blot (LC3B-II/LC3B-I), HepG2 ATP7B-/-; format: cell-based, human; details: 24 h, even at 600 µM and 800 µM
Protocol: as §1

[6] = biological target: T1, LC3B (Homo sapiens, UniProt Q9GZQ8); test: Pull-down with resin-bound GST-LC3B as bait from transfected HEK293H cell lysate; format: binding; details: 500 µg HEK293H lysate, western blot, repeated two times
T1 construct: His6 (N, cleaved yes); MBP (N, cleaved yes); made in house; host or cells: E. coli BL21-codonplus (DE3)-RIL
Protocol: GST tagged LC3B was used as a bait to trap the full-length ATP7B from a lysate obtained from ATP7B transfected human embryonic kidney 293 H cell line (HEK293H) cells. To this end, 100,000 cells of HEK293H were cultured in 1 mL of DMEM media (Thermo Fisher Scientific, 31966-047) plus 10% fetal bovine serum (FBS) (Fisher Scientific, 10309433) and 1% Penicillin-Streptomycin (P/S) (Thermo Fisher Scientific, 15140122). Once the cells reached 80% confluence, cells were transfected with pIRES-GFP carrying full-length ATP7B (NM_000053.4) or its W1452A/L1455A mutant using Lipofectamine LTX and plus reagent (Invitrogen, 15338100). […] Blots were imaged on an Infrared fluorescence imaging system using Li-Cor 9120 Odyssey (LI-COR Biosciences, Bad Homburg, Germany). Protein band intensity quantification was done using ImageJ (National Institutes of Health, Bethesda, MD, USA).

ATP7B in elution fraction of GST-LC3B pull-down [6] | Molecule | LC3B-II level (western blot) [1] | TGN fraction of EGFP-ATP7B ([2]; 400 µM CuSO4, 24 h) | fold increase of EGFP-ATP7B colocalization with lysosomal structures vs basal medium condition ([2]; 400 µM CuSO4, 24 h) | colocalization of EGFP-ATP7B with lysosomal structures (LAMP1) ([2]; 400 µM CuSO4, 24 h, percentage from mean Pearson's correlation coefficient, 30 cells) | fold elevation of EGFP-ATP7B colocalization with LC3B vs basal copper concentration ([2]; high CuSO4 concentration (400 µM), 24 h) | colocalization of EGFP-ATP7B with LC3B ([2]; high CuSO4 concentration (400 µM), 24 h, from mean Pearson's correlation coefficient, 30 cells) | red/yellow puncta ratio (autophagosome-lysosome fusion) [3] | red/yellow puncta ratio (autophagosome-lysosome fusion) [4] | LC3B-II/LC3B-I ratio (western blot) [5]
 | O=S(=O)([O-])[O-].[Cu+2] [CuSO4] | significant increase of LC3B-II | no TGN fraction was detectable | about 1.2 fold | 83.6% | 4.8 fold | 11.6% | increased red/yellow puncta ratio | significantly decreased | did not significantly alter
largely reduced | B1 |  |  |  |  |  |  |  |  | 
